Results: patent US10501421B1, “Substituted benzimidazoles as modulators of Ras signaling” (VANDERBILT UNIVERSITY, priority 2017, dated 2019)
Where a name gives a salt, the structure may show the parent alone. Read-outs that look alike come from different tables or passages of the source.

Key:
[1] = molecular target: Ras GEF SOS (Son of Sevenless) (Homo sapiens, UniProt Q07889); experiment: SOS-mediated nucleotide exchange on Ras (BODIPY-GDP fluorescence); type: biochemical; settings: SOS-mediated exchange of BODIPY-GDP for GTP on Ras
Method in brief: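 Exchange rates were taken from single-exponential fits of the fluorescence time course as BODIPY-GDP on Ras was replaced by GTP. Compound went in first, then GTP and SOS. Mean rates plotted against concentration gave EC50 by four-parameter dose-response fitting.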

[2] = molecular target: T1, Son of Sevenless (SOS) (Homo sapiens, UniProt Q07889); experiment: Binding to SOS, fluorescence polarization anisotropy (FPA) probe displacement; settings: displacement of FITC-conjugated probe (Example 285), affinity calculated from IC50
T1 sequence (Q07889 564-1049 limits assumed): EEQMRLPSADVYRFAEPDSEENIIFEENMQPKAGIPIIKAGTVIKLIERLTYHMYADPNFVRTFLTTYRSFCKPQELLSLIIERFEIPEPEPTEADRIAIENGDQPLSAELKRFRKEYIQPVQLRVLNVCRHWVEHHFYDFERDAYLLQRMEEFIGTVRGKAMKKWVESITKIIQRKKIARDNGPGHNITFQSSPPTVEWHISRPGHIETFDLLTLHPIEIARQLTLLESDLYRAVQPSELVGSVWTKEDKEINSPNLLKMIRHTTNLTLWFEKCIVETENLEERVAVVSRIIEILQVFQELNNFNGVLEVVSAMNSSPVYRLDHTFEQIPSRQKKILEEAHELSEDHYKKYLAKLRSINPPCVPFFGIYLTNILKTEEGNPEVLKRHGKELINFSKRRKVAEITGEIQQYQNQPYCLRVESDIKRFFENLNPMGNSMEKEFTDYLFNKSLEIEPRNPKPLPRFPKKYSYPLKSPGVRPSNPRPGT
Method in brief: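 Test compounds were titrated against SOS pre-bound to a fluorescein-labelled probe, with anisotropy plotted versus compound concentration. Binding affinities were derived from IC50 values obtained by four-parameter dose-response fitting.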

[3] = tested on: H727 lung cancer cell lines (G12V K-Ras mutation); experiment: Inhibition of cancer cell proliferation (CellTiter-Glo); type: cell-based; settings: Homo sapiens, NCI-H727, 72 h, read-out: Cell proliferation activity (H727 cancer cell line proliferation IC50)
Method in brief: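 H727 cells (K-Ras G12V), 1000/well, plated overnight then exposed to a compound dose range for 3 days at 37 °C. Proliferation by CellTiter-Glo, normalized to DMSO; IC50 from four-parameter variable-slope fit.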

[4] = H727 cells, 3 days treatment, CellTiter-Glo

Ras GEF SOS (Son of Sevenless), sequence (P01112 1-166 partner limits assumed, one chain of several): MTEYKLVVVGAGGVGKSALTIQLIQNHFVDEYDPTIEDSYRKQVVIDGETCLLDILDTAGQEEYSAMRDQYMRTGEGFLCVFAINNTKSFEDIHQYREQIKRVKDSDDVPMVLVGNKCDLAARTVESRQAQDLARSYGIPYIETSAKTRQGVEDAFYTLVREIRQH

SMILES	EC50 [1] [µM]	Ki [2] [µM]	IC50 [3, 4] [µM]	IC50 [3] [µM]
C=C[C@H](N)c1cc(C)cc2c1nc(N1CCNCC1)n2Cc1cc(C)c(F)c(C)c1 [Example 162, (S)-1-(1-(4-fluoro-3,5-dimethylbenzyl)-6-methyl-2-(piperazin-1-yl)-1H-benzo[d]imidazol-4-yl)prop-2-en-1-amine trifluoroacetate]	1 to 5	1 to 5	–	1 to 5
CCC[C@H](N)c1cc(Cl)cc2c1nc(N1CCNCC1)n2Cc1cc(C)c(F)c(C)c1 [Example 164, (S)-1-(6-chloro-1-(4-fluoro-3,5-dimethylbenzyl)-2-(piperazin-1-yl)-1H-benzo[d]imidazol-4-yl)butan-1-amine trifluoroacetate]	1 to 5	< 0.5	–	< 1
Fc1ccc(Cn2c(N3CCNCC3)nc3c(-c4ccnn4-c4ccc(Br)cc4)cc(Cl)cc32)cc1Cl [Example 170, 4-(1-(4-bromophenyl)-1H-pyrazol-5-yl)-6-chloro-1-(3-chloro-4-fluorobenzyl)-2-(piperazin-1-yl)-1H-benzo[d]imidazole trifluoroacetate]	1 to 5	< 0.5	–	5 to 20
Cc1cnc2nc(N3CCC(N)C3)n(Cc3ccc(F)c(C)c3)c2c1 (stereo not drawn) [Example 241, 1-(1-(4-fluoro-3-methylbenzyl)-6-methyl-1H-imidazo[4,5-b]pyridin-2-yl)pyrrolidin-3-amine]	1 to 5	> 5	> 20	–
Cc1cc(Cn2c(N3CC(CN)C3)nc3ccc(OC(C)C(F)(F)F)nc32)ccc1F (stereo not drawn) [Example 259, (1-(3-(4-fluoro-3-methylbenzyl)-5-((1,1,1-trifluorpropan-2-yl)oxy)-3H-imidazo[4,5-b]pyridin-2-yl)azetidin-3-yl)methanamine]	5 to 30	> 5	< 1	–
Cc1cc(Cn2c(NCC3CNC3)nc3ccc(OC(C)C(F)(F)F)nc32)ccc1F (stereo not drawn) [Example 260, N-(azetidin-3-ylmethyl)-3-(4-fluoro-3-methylbenzyl)-5-((1,1,1-trifluoropropan-2-yl)oxy)-3H-imidazo[4,5-b]pyridin-2-amine]	5 to 30	> 5	< 1	–

The next lines start with results.

EC50 [1] [µM]	Ki [2] [µM]	IC50 [3, 4] [µM]	SMILES	IC50 [3] [µM]
1 to 5	> 5	5 to 20	Cc1cnc2nc(N3CCCC(N)C3)n(Cc3ccc(F)c(C)c3)c2c1 (stereo not drawn) [Example 240, 1-(1-(4-fluoro-3-methylbenzyl)-6-methyl-1H-imidazo[4,5-b]pyridin-2-yl)piperidin-3-amine]	–
< 1	0.5 to 1	5 to 20	Cc1cnc2nc(N3CC(CN)C3)n(Cc3ccc(F)c(C)c3)c2c1 [Example 248, (1-(1-(4-fluoro-3-methylbenzyl)-6-methyl-1H-imidazo[4,5-b]pyridin-2-yl)azetidin-3-yl)methanamine]	–
< 1	< 0.5	1 to 5	Cc1cc(-c2ccccc2Cl)c2nc(N3CCNCC3)n(Cc3cc(C)c(F)c(C)c3)c2c1 [Example 267, 4-(2-chlorophenyl)-1-[(4-fluoro-3,5-dimethylphenyl)methyl]-6-methyl-2-piperazin-1-ylbenzimidazole]	–
< 1	0.5 to 1	5 to 20	Cc1cc(OC2CCNC2)c2nc(N3CCNCC3)n(Cc3cc(C)c(F)c(C)c3)c2c1 (stereo not drawn) [Example 317, 1-(4-fluoro-3,5-dimethylbenzyl)-6-methyl-2-(piperazin-1-yl)-4-(pyrrolidin-3-yloxy)-1H-benzo[d]imidazole]	–
